In publication PMC10221320:
Positions of bridges follow the written chain, without caps; N, C: chain ends. No end group written: not given here.

Assays:
[1] = intraperitoneal administration; ref [40]; cited from earlier work
rat ASIC3 (rASIC3) = conditions: ref [41]; read-out: EC50, potentiation of rASIC3 current; cited from earlier work
CD-1 mice [2] = experiment: Nociceptive reaction to direct hind paw pad injection; assay type: in vivo, mouse; conditions: 1 mg/kg in the hind paw pad; 15 min
Experimental: (§1) The animal studies were performed under the European Commission’s legislation (Directives 86/609/EEC, 2010/63/EU), the National Standard of the Russian Federation “Good Laboratory Practice” (GOST P 53434-2009, Moscow, Russia), and Committee on Ethics of Laboratory Animal Handling № 05/21, 20 September 2021 and 08/21, 30 December 2021 protocols (PIBOC FEB RAS). Adult female CD-1 mice weighing 25 ± 2 g were subjected to a 12 h light–dark cycle at room temperature and with ad libitum access to food and water. There were seven or eight individuals in each group.
For a direct Hmg 1b-4 injection (to eliminate the nociceptive reaction of potentiator of ASIC3 channels), it was dissolved in saline and administered at a dose of 1 mg/kg in the hind paw pad. The control group was injected with an identical volume (20 µL) of saline. The animals were placed individually, and a nociceptive reaction was registered for 15 min.

rat ASIC1a (rASIC1a) = tested on: rat ASIC1a (rASIC1a); design: method as in PMID 29684594, PMID 32326130; conditions: ref [40],[41]; read-out: IC50, inhibition of rASIC1a; cited from earlier work
CD-1 mice [3] = experiment: Elevated plus maze test; assay type: in vivo, mouse; conditions: for N (h-d), number of hanging-down reactions / N (racks), vertical activity / N (sap), number of stretch-attend postures / N. entries, closed arms / N. entries, open arms / S (act), distance traveled during activity / S, distance traveled / T (act), activity time / T (e.c.z.), time of exit from the central zone / T (pass), passivity time / V, average travel speed / V(act), average movement speed during activity / N. entries, central area / T., time spent in closed arms / T., time spent in central area / T., time spent in open arms: mean ± SD
Experimental: as §1
The anti-anxiety activity of the peptides was studied using the elevated plus maze (OpenScience, Krasnogorsk, Russia) test, a cruciform arena raised 50 cm above the floor, where the central platform and two arms are open and lightened, and two arms are closed with walls. Three groups of animals were treated with peptides at doses of 0.01, 0.1 and 1 mg/kg (intravenously) 30 min before testing. The control group was injected with an identical volume (50 µL) of sterile saline. Animals were placed in the center of the lightened arena and the recording lasted 5 min. Using the software “Minotaur” (LLC “Neurobiotics”, Zelenograd, Russia), 12 parameters were estimated: time (T) of activity(act); passivity (pass); spent in closed, open arms, and on the central area; exit from the central zone (e.c.z.); average travel speed (V, m/s); average movement speed during activity (V(act)); distance traveled (S, m); distance traveled during activity (S (act)); a number (N) of entries into open, closed arms, and exits to the central area (entries); vertical activity (racks); and stretch–attend posture when the animal stretches to its full length mainly using the forepaws (sap).

CD-1 mice [4] = experiment: Carrageenan-induced paw edema; assay type: in vivo, mouse
Experimental: as §1
Three groups of animals were treated with peptides at doses of 0.01, 0.1 and 1 mg/kg (intravenously) 30 min before the induction of inflammation. The control animal group received an identical volume of saline. The positive control group received diclofenac (Hemofarm A.D., Vršac, Serbia) at a dose of 1 mg/kg. The edema was induced by a 20 µL injection of 1.5% solution of λ-carrageenan (Sigma Aldrich, St. Louis, MO, USA) in the hind paw pad. The resulting edema was measured after 1, 2, 4 and 24 h using a plethysmometer (Ugo Basile, Gemonio (VA), Italy). The anti-inflammatory threshold was estimated as a decrease in the paw volume and volume growth index (%), calculated using the formula: Volume Growth Index (%) = [(VC − Vi)/Vi] × 100, (1), where VC is the volume of the paw after the introduction of carrageenan and Vi is the volume of the paw before the introduction of carrageenan.

[5] = 0.01 mg/kg i.v. 30 min before testing, n = 7–8
[6] = 0.1 mg/kg i.v. 30 min before testing, n = 7–8
[7] = 1 mg/kg i.v. 30 min before testing, n = 7–8

Sequence: GTPCDCYGYTGVYWFMLSRCPSGYGYNLSCHYFMGICCVKR (disulfide 4-37, 6-30, 20-38 (inferred)) [Hmg 1b-4]
- maximal nontoxic dose [1]: 10 mg/kg
- EC50 (rat ASIC3 (rASIC3)): 1530 ± 70 nM
- nociceptive reaction (CD-1 mice [2]): did not induce a nociceptive reaction
- IC50 (rat ASIC1a (rASIC1a)): 1250 nM
- N (h-d), number of hanging-down reactions (CD-1 mice [3]; [5]): 19 ± 6.6
- N (racks), vertical activity (CD-1 mice [3]; [5]): 34 ± 14.3
- N (sap), number of stretch-attend postures (CD-1 mice [3]; [5]): 15 ± 2.3
- N. entries, closed arms (CD-1 mice [3]; [5]): 18 ± 4.8
- N. entries, open arms (CD-1 mice [3]; [5]): 15 ± 3.3
- S (act), distance traveled during activity (CD-1 mice [3]; [5]): 42.6 ± 8.0 m
- S, distance traveled (CD-1 mice [3]; [5]): 44.3 ± 8.3 m
- T (act), activity time (CD-1 mice [3]; [5]): 161.7 ± 10.6 s
- T (e.c.z.), time of exit from the central zone (CD-1 mice [3]; [5]): 3 ± 1.5 s
- T (pass), passivity time (CD-1 mice [3]; [5]): 137.7 ± 11.2 s
- V, average travel speed (CD-1 mice [3]; [5]): 0.15 ± 0.03 m/s
- V(act), average movement speed during activity (CD-1 mice [3]; 0.01 mg/kg i.v. 30 min before testing, n = 7–8 (SD on later line: Hmg 1b-2 0.02, Hmg 1b-4 0.02)): 0.26 m/s
- N. entries, central area (CD-1 mice [3]; 0.01 mg/kg i.v. 30 min before testing, n = 7–8 (SD on later line: Hmg 1b-2 11.3)): 36±9.4
- T., time spent in closed arms (CD-1 mice [3]; 0.01 mg/kg i.v. 30 min before testing, n = 7–8 (SD on later line: Hmg 1b-2 35.7, Hmg 1b-4 18.7)): 180.1 s
- N (h-d), number of hanging-down reactions (CD-1 mice [3]; [6]): 20 ± 8.3
- N (racks), vertical activity (CD-1 mice [3]; [6]): 41 ± 4.8
- N (sap), number of stretch-attend postures (CD-1 mice [3]; [6]): 17 ± 3.6
- N. entries, central area (CD-1 mice [3]; [6]): 38 ± 8.4
- N. entries, closed arms (CD-1 mice [3]; [6]): 20 ± 6.6
- N. entries, open arms (CD-1 mice [3]; [6]): 22 ± 3.5
- S (act), distance traveled during activity (CD-1 mice [3]; [6]): 45.1 ± 6.1 m
- S, distance traveled (CD-1 mice [3]; [6]): 46.8 ± 6.1 m
- T (act), activity time (CD-1 mice [3]; [6]): 170.8 ± 16.1 s
- T (e.c.z.), time of exit from the central zone (CD-1 mice [3]; [6]): 8 ± 3.6 s
- T., time spent in central area (CD-1 mice [3]; [6]): 78.7 ± 15.3 s
- T., time spent in closed arms (CD-1 mice [3]; [6]): 169 ± 30.2 s
- T., time spent in open arms (CD-1 mice [3]; [6]): 84.3 ± 28.7 s
- V, average travel speed (CD-1 mice [3]; [6]): 0.14 ± 0.02 m/s
- V(act), average movement speed during activity (CD-1 mice [3]; 0.1 mg/kg i.v. 30 min before testing, n = 7–8 (SD on later line: Hmg 1b-2 0.01, Hmg 1b-4 0.03)): 0.27 m/s
- T (pass), passivity time (CD-1 mice [3]; 0.1 mg/kg i.v. 30 min before testing, n = 7–8 (SD on later line: Hmg 1b-2 19.8)): 128 ± 15.7 s
- N (h-d), number of hanging-down reactions (CD-1 mice [3]; [7]): 18 ± 5.2
- N (racks), vertical activity (CD-1 mice [3]; [7]): 45 ± 8.4
- N (sap), number of stretch-attend postures (CD-1 mice [3]; [7]): 14 ± 1.8
- N. entries, central area (CD-1 mice [3]; [7]): 29 ± 3.4
- N. entries, closed arms (CD-1 mice [3]; [7]): 19 ± 3.3
- N. entries, open arms (CD-1 mice [3]; [7]): 20 ± 2.5
- S (act), distance traveled during activity (CD-1 mice [3]; [7]): 41.0 ± 7.5 m
- S, distance traveled (CD-1 mice [3]; [7]): 43.1 ± 7.1 m
- T (act), activity time (CD-1 mice [3]; [7]): 174 ± 17.9 s
- T (e.c.z.), time of exit from the central zone (CD-1 mice [3]; [7]): 8 ± 6.5 s
- T., time spent in central area (CD-1 mice [3]; [7]): 73.8 ± 14.6 s
- T., time spent in open arms (CD-1 mice [3]; [7]): 89.6 ± 18.5 s
- V, average travel speed (CD-1 mice [3]; [7]): 0.14 ± 0.03 m/s
- V(act), average movement speed during activity (CD-1 mice [3]; 1 mg/kg i.v. 30 min before testing, n = 7–8 (SD on later line: Hmg 1b-2 0.02, Hmg 1b-4 0.04)): 0.25 m/s
- T (pass), passivity time (CD-1 mice [3]; 1 mg/kg i.v. 30 min before testing, n = 7–8 (SD on later line: Hmg 1b-2 21.9, Hmg 1b-4 17.7)): 125.7 s
- T., time spent in closed arms (CD-1 mice [3]; 1 mg/kg i.v. 30 min before testing, n = 7–8 (SD on later line: Hmg 1b-2 32.7, Hmg 1b-4 17.2)): 160.2 s
- activity and immobility time, travelled distance and mean speed (CD-1 mice [3]; i.v.): approximately the same in all groups
- anxiolytic effect (CD-1 mice [3]; i.v.): exhibit an anxiolytic effect
- number of hangings from open sleeves (CD-1 mice [3]; i.v.): increase in the number of hangings from open sleeves
- rears number (CD-1 mice [3]; i.v.): increase
- close area (closed arms) preference, share of time (CD-1 mice [3]; i.v., control group 63%): 50%
- reduction of volume of paw edema vs control (CD-1 mice [4]; 0.01 mg/kg i.v., only after 24 h): 1.5 times
- paw volume relative to original values (CD-1 mice [4]; 0.1 mg/kg i.v., 24 h): reduced the volume of the paw almost to the original values
- reduction of paw edema (CD-1 mice [4]; 0.1 mg/kg i.v., after 24 h): ~4 times
- reduction of paw edema (CD-1 mice [4]; 1 mg/kg i.v., after 24 h): approximately 2 times
- anti-inflammatory effect (CD-1 mice [4]; 0.1 and 1 mg/kg i.v., after 2, 4 and 24 h): statistically significant anti-inflammatory effect
- effect compared with diclofenac (CD-1 mice [4]; 1 and 0.1 mg/kg i.v. at 24 h): exceeded the effect of diclofenac
- reduction of paw edema (CD-1 mice [4]; 1 and 0.1 mg/kg i.v., after 4 h): 1.5 times
- paw volume and growth index of edema (CD-1 mice [4]; i.v., at 1 and 2 h): decreased slightly
